Legend:
UGT1A4 = target: T1, UGT1A4 (Homo sapiens, UniProt P22310); experiment: Drug metabolism assessed as recombinant human UGT1A4 assessed as O-glucuronidation at 10 to 400 uM incubated for 60 mins by LC-MS/MS analysis
T1 sequence (P22310 whole entry): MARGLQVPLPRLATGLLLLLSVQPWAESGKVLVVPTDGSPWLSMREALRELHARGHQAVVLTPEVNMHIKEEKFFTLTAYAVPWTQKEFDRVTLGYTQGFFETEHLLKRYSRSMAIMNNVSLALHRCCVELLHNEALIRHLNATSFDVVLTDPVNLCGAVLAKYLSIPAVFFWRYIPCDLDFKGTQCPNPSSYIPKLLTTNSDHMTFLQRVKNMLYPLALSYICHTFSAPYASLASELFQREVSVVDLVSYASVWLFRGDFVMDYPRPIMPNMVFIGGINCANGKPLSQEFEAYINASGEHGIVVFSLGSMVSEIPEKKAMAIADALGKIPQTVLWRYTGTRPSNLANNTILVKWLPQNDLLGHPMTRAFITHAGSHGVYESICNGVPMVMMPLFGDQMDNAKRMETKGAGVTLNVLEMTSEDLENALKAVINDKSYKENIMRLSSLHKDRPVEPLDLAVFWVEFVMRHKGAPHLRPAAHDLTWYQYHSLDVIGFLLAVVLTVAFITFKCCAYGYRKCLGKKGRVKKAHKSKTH

[1] = target: T2, UDP-glucuronosyltransferase 2B17 (Homo sapiens, UniProt O75795); experiment: Drug metabolism assessed as recombinant human UGT2B17 assessed as O-glucuronidation at 100 uM incubated for 60 mins by LC-MS/MS analysis; assay type: ADME; conditions: recombinant enzyme, 1 h
T2 sequence (O75795 whole entry): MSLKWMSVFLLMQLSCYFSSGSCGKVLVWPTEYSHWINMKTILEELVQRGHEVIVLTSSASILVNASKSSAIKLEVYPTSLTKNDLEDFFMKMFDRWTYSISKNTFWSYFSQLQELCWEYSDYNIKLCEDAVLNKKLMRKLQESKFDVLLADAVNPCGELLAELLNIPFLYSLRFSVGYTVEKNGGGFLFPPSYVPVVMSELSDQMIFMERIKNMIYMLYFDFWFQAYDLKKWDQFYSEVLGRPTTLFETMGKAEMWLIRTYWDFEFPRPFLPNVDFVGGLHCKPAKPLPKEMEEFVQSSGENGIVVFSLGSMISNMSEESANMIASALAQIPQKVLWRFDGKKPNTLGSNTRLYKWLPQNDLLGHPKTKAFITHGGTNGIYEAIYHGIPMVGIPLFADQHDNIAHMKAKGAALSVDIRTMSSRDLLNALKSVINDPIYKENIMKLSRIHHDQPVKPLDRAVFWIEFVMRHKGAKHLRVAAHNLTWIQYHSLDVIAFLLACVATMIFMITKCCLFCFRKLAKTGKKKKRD

UGT1A9 = target: T3, UGT1A9 (Homo sapiens, UniProt O60656); experiment: Drug metabolism assessed as recombinant human UGT1A9 assessed as O-glucuronidation at 10 to 400 uM incubated for 60 mins by LC-MS/MS analysis
T3 sequence (O60656 whole entry): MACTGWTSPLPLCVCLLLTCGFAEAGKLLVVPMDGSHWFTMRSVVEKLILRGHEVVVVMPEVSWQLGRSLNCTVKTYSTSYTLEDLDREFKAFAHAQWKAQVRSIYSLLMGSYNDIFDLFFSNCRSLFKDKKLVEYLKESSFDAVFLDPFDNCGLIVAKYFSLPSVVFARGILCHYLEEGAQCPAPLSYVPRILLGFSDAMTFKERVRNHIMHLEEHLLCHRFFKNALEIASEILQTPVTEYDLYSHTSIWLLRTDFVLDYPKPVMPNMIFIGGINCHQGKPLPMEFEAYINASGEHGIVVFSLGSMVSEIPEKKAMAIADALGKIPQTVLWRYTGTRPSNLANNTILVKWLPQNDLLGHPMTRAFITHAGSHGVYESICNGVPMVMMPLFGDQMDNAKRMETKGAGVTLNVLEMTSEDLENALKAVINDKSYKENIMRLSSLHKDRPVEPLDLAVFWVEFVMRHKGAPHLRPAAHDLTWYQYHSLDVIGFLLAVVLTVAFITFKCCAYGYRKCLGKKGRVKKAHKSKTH

[2] = target: T4, UDP-glucuronosyltransferase 2B15 (Homo sapiens, UniProt P54855); experiment: Drug metabolism assessed as recombinant human UGT2B15 assessed as N-glucuronidation at 100 uM incubated for 60 mins by LC-MS/MS analysis; assay type: ADME; conditions: recombinant enzyme, 1 h
T4 sequence (P54855 whole entry): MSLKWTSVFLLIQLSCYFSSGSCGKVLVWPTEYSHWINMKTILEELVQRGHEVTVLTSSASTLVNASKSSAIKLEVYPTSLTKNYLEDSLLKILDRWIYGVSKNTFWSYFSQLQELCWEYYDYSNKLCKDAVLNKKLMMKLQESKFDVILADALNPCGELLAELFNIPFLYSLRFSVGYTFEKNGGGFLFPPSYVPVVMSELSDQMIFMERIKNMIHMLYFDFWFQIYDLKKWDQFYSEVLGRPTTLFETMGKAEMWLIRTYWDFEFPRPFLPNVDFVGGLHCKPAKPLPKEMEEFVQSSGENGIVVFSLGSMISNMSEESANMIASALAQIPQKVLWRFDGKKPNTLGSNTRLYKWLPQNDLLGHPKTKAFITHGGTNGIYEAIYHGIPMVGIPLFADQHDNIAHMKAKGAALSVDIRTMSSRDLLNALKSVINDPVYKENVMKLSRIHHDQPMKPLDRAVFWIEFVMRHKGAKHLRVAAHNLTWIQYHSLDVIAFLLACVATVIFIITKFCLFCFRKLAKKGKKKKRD

[3] = target: T5, UDP-glucuronosyltransferase 1A3 (Homo sapiens, UniProt P35503); experiment: Drug metabolism assessed as recombinant human UGT1A3 assessed as N-glucuronidation at 100 uM incubated for 60 mins by LC-MS/MS analysis; assay type: ADME; conditions: recombinant enzyme, 1 h
T5 sequence (P35503 whole entry): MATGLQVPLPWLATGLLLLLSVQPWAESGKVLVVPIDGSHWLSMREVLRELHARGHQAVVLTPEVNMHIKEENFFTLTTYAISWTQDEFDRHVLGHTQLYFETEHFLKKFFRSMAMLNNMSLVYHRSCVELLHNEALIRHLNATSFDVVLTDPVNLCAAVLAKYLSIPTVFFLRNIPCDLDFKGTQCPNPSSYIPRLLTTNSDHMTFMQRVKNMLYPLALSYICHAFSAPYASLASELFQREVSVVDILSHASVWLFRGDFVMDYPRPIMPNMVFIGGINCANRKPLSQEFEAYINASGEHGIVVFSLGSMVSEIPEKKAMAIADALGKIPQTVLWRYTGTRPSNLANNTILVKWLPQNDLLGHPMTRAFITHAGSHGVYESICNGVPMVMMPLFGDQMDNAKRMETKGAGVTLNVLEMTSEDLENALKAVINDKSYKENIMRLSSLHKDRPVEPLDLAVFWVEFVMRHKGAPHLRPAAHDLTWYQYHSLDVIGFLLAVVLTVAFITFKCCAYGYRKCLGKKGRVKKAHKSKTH

[4] = target: T6, UDP-glucuronosyltransferase 1A9 (Homo sapiens, UniProt O60656); experiment: Drug metabolism assessed as recombinant human UGT1A9 assessed as O-glucuronidation measured as inhibition constant at 10 to 400 uM incubated for 60 mins by LC-MS/MS analysis
T6 sequence (O60656 whole entry): T3 sequence (O60656 whole entry)

## O=C(CCCN1CCC(O)(c2ccc(Cl)cc2)CC1)c1ccc(F)cc1 [HALOPERIDOL]
UGT1A4
  Km at 1 h, 400 µM: 64 µM
[1]
  Drug metabolism: metabolite_not_detected
UGT1A9
  Km at 1 h, 400 µM: 174 µM
[2]
  Drug metabolism: metabolite_not_detected
[3]
  Drug metabolism: metabolite_not_detected
[4]
  Ki: 344 µM
